Here are results for 5 compounds from US8802597B2, “Herbicidal pyrimidines” (E I du Pont de Nemours and Company, priority 2003, dated 2014).

Read-outs that look alike come from different tables or passages of the source.

Common to all, as to test: Test C pre/postemergence
Holding throughout (type): in vivo

In assay [1] the test system is eastern black nightshade (Solanum ptycanthum). Conditions: Preemergence; for pest or weed control at 62 g/ha / pest or weed control at 125 g/ha / pest or weed control at 250 g/ha / pest or weed control at 500 g/ha: Solanum, pre-emergence, read-out: Plant response rating, Nightshade. The procedure, abridged:
(§1)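 Percent control is a visual rating (0 none, 100 complete) taken against untreated plants after 12 to 14 days of greenhouse growth. Applications were made preemergence to seeded pots and postemergence to plants at the 1- to 4-leaf stage, in a non-phytotoxic surfactant-containing solvent.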

In assay [2] the test system is yellow nutsedge (Cyperus esculentus). Conditions: for pest or weed control at 62 g/ha / pest or weed control at 125 g/ha / pest or weed control at 250 g/ha / pest or weed control at 500 g/ha: Cyperus. In a few lines:
as §1

Assay [3] relates to velvetleaf (Abutilon theophrasti). Conditions: for pest or weed control at 62 g/ha / pest or weed control at 125 g/ha / pest or weed control at 250 g/ha / pest or weed control at 500 g/ha: Abutilon theophrasti. In a few lines:
as §1

Setting [4] is: 62 g ai/ha, scale 0 to 100, 0 no effect, 100 complete control.
Setting [5] is: post-emergence, Postemergence, 62 g ai/ha, scale 0 to 100 (0 no effect, 100 complete control), read-out: Nutsedge, Yellow plant response rating.
Setting [6] is: post-emergence, Postemergence, 125 g ai/ha, scale 0 to 100 (0 no effect, 100 complete control), read-out: Nutsedge, Yellow plant response rating.
[7] abbreviates: post-emergence, Postemergence, 250 g ai/ha, scale 0 to 100, read-out: Plant response rating, Nutsedge, Yellow.
[8] abbreviates: post-emergence, Postemergence, 500 g ai/ha, scale 0 to 100, read-out: Plant response rating, Nutsedge, Yellow.
Where [9] appears, read: pre-emergence, Preemergence, 62 g ai/ha, scale 0 to 100, 0 no effect, 100 complete control, read-out: Plant response rating, Nutsedge, Yellow.
Setting [10] is: pre-emergence, Preemergence, 125 g ai/ha, scale 0 to 100, read-out: Plant response rating, Nutsedge, Yellow.
Setting [11] is: pre-emergence, Preemergence, 250 g ai/ha, scale 0 to 100, read-out: Plant response rating, Nutsedge, Yellow.
Where [12] appears, read: pre-emergence, Preemergence, 500 g ai/ha, scale 0 to 100, read-out: Plant response rating, Nutsedge, Yellow.
The mark [13] stands for this setting: post-emergence, Postemergence, 62 g ai/ha, scale 0 to 100 (0 no effect, 100 complete control), read-out: Velvetleaf plant response rating.
Where [14] appears, read: post-emergence, Postemergence, 125 g ai/ha, scale 0 to 100 (0 no effect, 100 complete control), read-out: Velvetleaf plant response rating.
The mark [15] stands for this setting: post-emergence, Postemergence, 250 g ai/ha, scale 0 to 100, read-out: Plant response rating, Velvetleaf.
Where [16] appears, read: post-emergence, Postemergence, 500 g ai/ha, scale 0 to 100, read-out: Plant response rating, Velvetleaf.
[17] abbreviates: pre-emergence, Preemergence, 62 g ai/ha, scale 0 to 100, 0 no effect, 100 complete control, read-out: Plant response rating, Velvetleaf.
Where [18] appears, read: pre-emergence, Preemergence, 125 g ai/ha, scale 0 to 100, read-out: Plant response rating, Velvetleaf.
[19] abbreviates: pre-emergence, Preemergence, 250 g ai/ha, scale 0 to 100, read-out: Plant response rating, Velvetleaf.
Setting [20] is: pre-emergence, Preemergence, 500 g ai/ha, scale 0 to 100, read-out: Plant response rating, Velvetleaf.
Where [21] appears, read: 31 g ai/ha, scale 0 to 100, 0 no effect, 100 complete control.
Where [22] appears, read: Postemergence, 125 g ai/ha, scale 0 to 100 (0 no effect, 100 complete control).
Where [23] appears, read: Preemergence, 16 g ai/ha, scale 0 to 100, 0 no effect, 100 complete control.
[24] abbreviates: Preemergence, 31 g ai/ha, scale 0 to 100, 0 no effect, 100 complete control.
[25] abbreviates: Preemergence, 62 g ai/ha, scale 0 to 100, 0 no effect, 100 complete control.
Where [26] appears, read: Postemergence, 62 g ai/ha, scale 0 to 100 (0 no effect, 100 complete control).
The mark [27] stands for this setting: Postemergence, 250 g ai/ha, scale 0 to 100.
[28] abbreviates: Preemergence, 125 g ai/ha, scale 0 to 100.
The mark [29] stands for this setting: Preemergence, 250 g ai/ha, scale 0 to 100.
Where [30] appears, read: Postemergence, 500 g ai/ha, scale 0 to 100.
Where [31] appears, read: Preemergence, 500 g ai/ha, scale 0 to 100.

For the compound `CNc1nc(C2CC2)nc(C(=O)OC)c1Br` [Compound 5], the pest or weed control at 62 g/ha in assay [1] (setting [4]) turned out to be 100%; in assay [2] (setting [5]) it was 0%; in assay [2] (setting [9]), 0%; in assay [3] (setting [13]), 55%; in assay [3] (setting [17]) it was 85%. Besides, the pest or weed control at 125 g/ha worked out at 100% in assay [1] (125 g ai/ha, scale 0 to 100); 0% in assay [2] (setting [6]); 0% in assay [2] (setting [10]); 90% in assay [3] (setting [14]); 85% in assay [3] (setting [18]). Also, the pest or weed control at 250 g/ha was found to be 100% in assay [1] (250 g ai/ha, scale 0 to 100); 0% in assay [2] (setting [7]); 0% in assay [2] (setting [11]); 90% in assay [3] (setting [15]); 90% in assay [3] (setting [19]). The pest or weed control at 500 g/ha in assay [1] (500 g ai/ha, scale 0 to 100) came out at 100%; in assay [2] (setting [8]) it was 0%; in assay [2] (setting [12]) it was 0%; in assay [3] (setting [16]), 95%; in assay [3] (setting [20]), 90%.
On to `CCCCOC(=O)c1nc(C2CC2)nc(N)c1Cl` [Compound 76], for which the “Plant response rating, Nightshade” value in assay [1] (16 g ai/ha, scale 0 to 100, 0 no effect, 100 complete control) is recorded as 30; in assay [1] (setting [21]) it was 40; in assay [1] (setting [4]), 60; in assay [1] (scale 0 to 100, 0 no effect, 100 complete control) it was 100. Also, the “Plant response rating (scale of 0 to 100), Nutsedge, Yellow” value in assay [2] (Postemergence, 16 g ai/ha) is recorded as 10; in assay [2] (Postemergence, 31 g ai/ha), 30; in assay [2] (Postemergence, 62 g ai/ha), 40. For the same compound, the “Nutsedge, Yellow plant response rating” value in assay [2] (setting [22]) stood at 60. For the same compound, the “Plant response rating, Nutsedge, Yellow” value in assay [2] (setting [23]), in assay [2] (setting [24]) and in assay [2] (setting [25]) was 0 throughout. Moreover, the “Plant response rating (scale of 0 to 100), Velvetleaf” value in assay [3] (Postemergence, 16 g ai/ha) was 45; in assay [3] (Postemergence, 31 g ai/ha), 80; in assay [3] (Postemergence, 62 g ai/ha), 95. Further, the “Velvetleaf plant response rating” value in assay [3] (setting [22]) stood at 95. The figures for the “Plant response rating, Velvetleaf” value in assay [3] (setting [23]), in assay [3] (setting [24]) and in assay [3] (setting [25]) were 30, 40 and 70, respectively.
For `CCCCOC(=O)c1nc(C2CC2)nc(N)c1Br` [Compound 16], the “Plant response rating, Nightshade” value in assay [1] (setting [21]) came to 55; in assay [1] (setting [4]) it was 90; in assay [1] (125 g ai/ha, scale 0 to 100), 95; in assay [1] (250 g ai/ha, scale 0 to 100) it was 100. In assay [2] (Postemergence, 31 g ai/ha), the “Plant response rating (scale of 0 to 100), Nutsedge, Yellow” value is listed as 0. Moreover, the “Nutsedge, Yellow plant response rating” value in assay [2] (setting [26]) and in assay [2] (setting [22]) was 0 each time. The “Plant response rating, Nutsedge, Yellow” value in assay [2] (setting [27]), in assay [2] (setting [24]), in assay [2] (setting [25]), in assay [2] (setting [28]) and in assay [2] (setting [29]) was 0 throughout. Further, the “Plant response rating (scale of 0 to 100), Velvetleaf” value in assay [3] (Postemergence, 31 g ai/ha) was 55. The “Velvetleaf plant response rating” value in assay [3] (setting [26]) is reported as 60; in assay [3] (setting [22]) it was 65. Further, the “Plant response rating, Velvetleaf” value in assay [3] (setting [27]) is given as 90; in assay [3] (setting [24]) it was 25; in assay [3] (setting [25]), 90; in assay [3] (setting [28]), 95; in assay [3] (setting [29]), 100.
With `CNN=Cc1nc(C2CC2)nc(N)c1Br` [Compound 49], the “Plant response rating, Nightshade” value amounted to 95 in assay [1] (setting [4]); 100 in assay [1] (125 g ai/ha, scale 0 to 100); 100 in assay [1] (250 g ai/ha, scale 0 to 100); 100 in assay [1] (500 g ai/ha, scale 0 to 100). Further, the “Nutsedge, Yellow plant response rating” value in assay [2] (setting [26]) and in assay [2] (setting [22]) was 0 in each case. Further, the “Plant response rating, Nutsedge, Yellow” value in assay [2] (setting [27]), in assay [2] (setting [30]), in assay [2] (setting [25]), in assay [2] (setting [28]), in assay [2] (setting [29]) and in assay [2] (setting [31]) was 0 each time. For the same compound, the “Velvetleaf plant response rating” value is given as 45 in assay [3] (setting [26]) and 70 in assay [3] (setting [22]). The “Plant response rating, Velvetleaf” value in assay [3] (setting [27]) turned out to be 75; in assay [3] (setting [30]), 80; in assay [3] (setting [25]), 15; in assay [3] (setting [28]), 70; in assay [3] (setting [29]) it was 90; in assay [3] (setting [31]), 100.
On to `CCOC(=O)c1nc(C2CC2)nc(N)c1Br` [Compound 1, ethyl 6-amino-5-bromo-2-cyclopropyl-4-pyrimidinecarboxylate], for which the pest or weed control at 62 g/ha was 100% in assay [1] (setting [4]); 0% in assay [2] (setting [5]); 0% in assay [2] (setting [9]); 85% in assay [3] (setting [13]); 80% in assay [3] (setting [17]). Besides, the pest or weed control at 125 g/ha is 100% in assay [1] (125 g ai/ha, scale 0 to 100); 0% in assay [2] (setting [6]); 0% in assay [2] (setting [10]); 90% in assay [3] (setting [14]); 90% in assay [3] (setting [18]). In addition, the pest or weed control at 250 g/ha in assay [1] (250 g ai/ha, scale 0 to 100) worked out at 100%; in assay [2] (setting [7]), 5%; in assay [2] (setting [11]), 50%; in assay [3] (setting [15]), 100%; in assay [3] (setting [19]) it was 95%. Also, the pest or weed control at 500 g/ha was 100% in assay [1] (500 g ai/ha, scale 0 to 100); 5% in assay [2] (setting [8]); 50% in assay [2] (setting [12]); 100% in assay [3] (setting [16]); 100% in assay [3] (setting [20]).
